From the supplement of paper PMC8253809

How the values were obtained:
DIPGX29 [1] = H3.3 K27M diffuse intrinsic pontine glioma line; test: area under dose-response curve of % growth inhibition (log2 RLU vs DMSO / staurosporine), 1e-11 to 1e-4 M (% x log10 M); higher = more growth inhibition
In short: (§1)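 Patient-derived pHGG/DIPG cell lines and astrocytes, cultured on 384-well plates with a 1% Geltrex coating, were given a 10-point threefold dilution series (mean top concentration 35 μM) in triplicate for 7 days (iAstro 3 days) at 37 °C, 5% CO2. CellTiter-Glo signal, log2-transformed and normalised per plate to % activity against solvent and positive controls, was fitted with a log-logistic curve or, where the sigmoid fit failed, a smoothing spline. Area under the curve was then computed by the trapezoid rule.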

DIPGX37 [2] = H3.3 K27M diffuse intrinsic pontine glioma line; test: as above
In short: as §1

HGGX39 [3] = paediatric high-grade glioma line; test: as above
In short: as §1

HGGX6 [4] = H3.3 G34R paediatric high-grade glioma line; test: as above
In short: as §1

DIPGX29 [5] = test: maximal growth inhibition (yFin) relative to DMSO / staurosporine; higher = more efficacious
In short: (§2)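 Viability readout was CellTiter-Glo luminescence, log2-transformed, normalised per plate to % activity between negative (solvent) and positive control wells, then pooled. This followed a 7-day exposure (3 days for iAstro) at 37 °C, 5% CO2 to a 10-point threefold dilution series (mean top concentration 35 μM), pin-tool delivered in triplicate to patient-derived pHGG/DIPG cell lines and astrocyte controls on 1% Geltrex-coated 384-well plates. Three- and four-parameter log-logistic fits were compared, and the one with the lowest AICc supplied EC50 and maximal response (yFin).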

DIPGX37 [6] = test: as above
In short: as §2

HGGX39 [7] = test: as above
In short: as §2

DIPGX29 [8] = test: EC50 (inflection of fitted growth-inhibition curve) (log10 M)
In short: as §2

DIPGX37 [9] = test: as above
In short: as §2

HGGX39 [10] = test: as above
In short: as §2

HGGX6 [11] = test: maximal growth inhibition (yFin) relative to DMSO / staurosporine; higher = more efficacious
In short: as §2

HGGX6 [12] = test: EC50 (inflection of fitted growth-inhibition curve) (log10 M)
In short: as §2

SMILES | area under dose-response curve (DIPGX29 [1]) | area under dose-response curve (DIPGX37 [2]) | area under dose-response curve (HGGX39 [3]) | area under dose-response curve (HGGX6 [4]) | maximal growth inhibition (DIPGX29 [5]) [%] | maximal growth inhibition (DIPGX37 [6]) [%] | maximal growth inhibition (HGGX39 [7]) [%] | EC50 (log10 M) (DIPGX29 [8]) | EC50 (log10 M) (DIPGX37 [9]) | EC50 (log10 M) (HGGX39 [10]) | maximal growth inhibition (HGGX6 [11]) [%] | EC50 (log10 M) (HGGX6 [12])
CC(=O)N1c2ccc(-c3ccc(C(=O)O)cc3)cc2[C@H](Nc2ccc(Cl)cc2)C[C@@H]1C [I-BET726] | 43 | 79.4 | 55.9 | 44.5 | 30 | 37.1 | 37.7 | -5.48 | -6.37 | -5.73 |  | 
CC(C)NC[C@@H](C(=O)N1CCN(c2ncnc3c2[C@H](C)C[C@H]3O)CC1)c1ccc(Cl)cc1 [IPATASERTIB] | 64.7 | 25.8 | 11.9 | 49 | 50.3 | 21.5 |  | -5.18 | -5.27 |  | 31.8 | -5.67
Clc1ccc(NN=C(c2ccccc2)c2ccccn2)nc1 [JIB-04] | 63.6 | 25.7 | 34.4 | 61.4 | 47.2 |  | 34.3 | -5.13 |  | -5.02 | 50.7 | -5.07
CC[C@H](C)C(=O)O[C@H]1C[C@@H](C)C=C2C=C[C@H](C)[C@H](CC[C@@H]3C[C@@H](O)CC(=O)O3)[C@H]21 [LOVASTATIN] | 29.8 | 36.7 | 94.8 | 29.1 |  | 23.7 | 68 |  | -5.76 | -5.37 | 21.5 | -5.49
S=c1[nH]cnc2nc[nH]c12 [MERCAPTOPURINE] | 44.1 | 38 | 28 | 25.5 | 20.5 |  |  | -6.35 |  |  | 21.1 | -5.3
CN(C)CCCNC(=O)c1ccc(-c2cc(O)c3ncccc3c2)cc1 [ML324] | 35.8 | 4.39 | 14.9 | 29.4 | 43.7 |  |  | -4.82 |  |  | 44.1 | -4.67
CCC(CC)(NC(=O)C(C)C)C(=O)N[C@@H](CCCN=C(N)N)C(=O)NC1(C(=O)NC(c2ccc(F)cc2)c2ccc(F)cc2)CCCC1 [MM-102] | 39.7 | 6.41 | 12.2 | 65.5 | 33.9 |  |  | -5.17 |  |  | 63.5 | -5.03
O=C(O)C[C@H](O)C[C@H](O)/C=C/c1c(C2CC2)nc2ccccc2c1-c1ccc(F)cc1 [PITAVASTATIN] | 75.6 | 121 | 215 | 95.1 | 49.2 |  | 92.9 | -5.04 |  | -6.26 | 66.4 | -5.36
CCCCOc1ccc(OCCCN2CCOCC2)cc1 [PRAMOXINE] | 17.3 | 46.2 | 70.5 | 23.2 |  | 55.5 | 77 |  | -4.83 | -4.82 | 23.9 | -4.97
CC(C)c1nc(N(C)S(C)(=O)=O)nc(-c2ccc(F)cc2)c1/C=C/[C@@H](O)C[C@@H](O)CC(=O)O [ROSUVASTATIN] | 25.2 | 37.5 | 83.4 | 30.4 |  | 22.7 | 61.4 |  | -5.85 | -5.45 | 21.2 | -5.54
Cn1cnc2c(F)c(Nc3ccc(Br)cc3Cl)c(C(=O)NOCCO)cc21 [SELUMETINIB] | 52.5 | 96 | 14.2 | 26.8 | 34.5 | 83.2 |  | -4.87 | -4.93 |  |  | 
Nc1ncnc2c1ncn2[C@@H]1O[C@H](C[C@@H](N)CC[C@H](N)C(=O)O)[C@@H](O)[C@H]1O [SINEFUNGIN] | 29 | 0 | 0 | 4.01 | 21.5 |  |  | -5.35 |  |  |  | 
CCc1c2c(nc3ccc(O)cc13)-c1cc3c(c(=O)n1C2)COC(=O)[C@]3(O)CC [SN-38] | 68.7 | 125 | 167 | 65.4 |  | 49 | 46.5 |  | -6.02 | -6.74 | 23.2 | -6.77
Nc1nc2[nH]cnc2c(=S)[nH]1 [THIOGUANINE] | 59.5 | 89.3 | 33.7 | 21.6 | 35.6 | 60.4 | 22.1 | -5.83 | -5.44 | -5.68 |  | 
O=C(NCC1(c2nc(-c3ccccc3)cs2)CCOCC1)c1cccc(-c2noc(C(F)(F)F)n2)c1 [TMP269] | 28 | 53.7 | 22.7 | 27.4 |  | 44.2 | 25.1 |  | -4.89 | -4.9 | 21 | -4.93
CCC(COC(=O)c1cc(OC)c(OC)c(OC)c1)(c1ccccc1)N(C)C (stereo unspecified) [TRIMEBUTINE] | 28.3 | 35.6 | 60.1 | 19.8 |  | 25.6 | 55.5 |  | -5.38 | -5.08 | 22.6 | -4.87
C=C[C@]1(C)C[C@@H](OC(=O)CSC(C)(C)CNC(=O)[C@H](N)C(C)C)[C@]2(C)[C@H](C)CC[C@]3(CCC(=O)[C@H]32)[C@@H](C)[C@@H]1O [VALNEMULIN] | 59.9 | 24 | 42.1 | 12 | 55.5 | 30.2 | 30.5 | -4.85 | -4.79 | -5.56 |  | 
CC[C@]1(O)C[C@@H]2CN(CCc3c([nH]c4ccccc34)[C@@](C(=O)OC)(c3cc4c(cc3OC)N(C)[C@H]3[C@@](O)(C(=O)OC)[C@H](OC(C)=O)[C@]5(CC)C=CCN6CC[C@]43[C@@H]65)C2)C1 [VINBLASTINE] | 88.8 | 58.2 | 53.5 | 58.8 | 50.4 |  |  | -5.63 |  |  | 23.5 | -5.46
